The test system of assay [1] is NCI-H1048. Briefly: Induction of mitochondrial membrane permeability in human NCI-H1048 cells assessed as increase in cytochrome C release at 1 to 8 uM incubated for 48 hrs by Western blot analysis. The assay is classed as functional, cell-based. Conditions: dose 1-8 µM. Background: Immunoblotting shows a protein as a band on a membrane.
The nature of assay [2]: Inhibition of PI3K/AKT/mTOR signalling pathway in human NCI-H1048 cells assessed as decrease in AKT level at 1.75 to 14 uM incubated for 48 hrs by Western blot analysis. Conditions: dose 1.75-14 µM. The assay is classed as cell-based.

Active and inactive are the calls of the source. The rule behind the calls is not given here.

`CC1CC(C)CN(Cc2cc3c(cc2-c2cc4ccc5c(c4cn2)OCO5)OCO3)C1` (configuration not stated): the result in assay [1] was Active.

For `CCC1CCCC(C)N1Cc1cc2c(cc1-c1cc3ccc4c(c3cn1)OCO4)OCO2` (configuration not stated), in assay [2], the inhibition entry was “Active”.

The values are drawn from ChEMBL document CHEMBL6153083, “Synthesis, Structural Modification, and Antismall Cell Lung Cancer Activity of 3-Arylisoquinolines with Dual Inhibitory Activity on Topoisomerase I and II” (J Med Chem, 2025).
